Test results published in patent US20140296170A1, “PHARMACEUTICAL COMPOSITION FOR PREVENTION OR TREATMENT OF BONE DISEASES COMPRISING SPINASTEROL GLUCOSIDE DERIVATIVE” (Lifetree Biotech Co., Ltd., priority 2013, published 2014).

How the values were obtained:
[1] = system: collagen-induced arthritis in DBA1/J mice; assay: Collagen-induced arthritis model in DBA1/J mice; format: in vivo; details: FIG. 1
[2] = system: cartilage of SD rats (osteoblast defected (OD) models); assay: Cartilage regeneration in osteoblast defected (OD) models; format: in vivo; details: 1 mg/kg orally once every two days for 4 weeks
Method: The cartilage regeneration activity of spinasterol glucoside derivatives were evaluated in osteoblast defected (OD) models which were widely used in study on the regeneration of degenerative articular cartilage. The cartilage of SD rats, at least 9 weeks of age, was destroyed by a […] drill, followed by suturing the muscle and lipid tissues so as to allow them to go about normal daily life. Then, 3-o-β-D-glucopyranosyl-spinasterol dissolved in distilled water was orally administered at a dose of 1 mg/kg once every two days for 4 weeks. Afterwards, the animals were sacrificed, and opened around the knee to take articular cartilage tissues, followed by decalcification for 4 weeks. The cartilage tissues thus softened were paraffinized, and dyed with Safran O solution to visualize the regeneration of the cartilage.

SMILES: CC[C@H](/C=C/[C@@H](C)[C@H]1CC[C@H]2C3=CC[C@H]4C[C@@H](O[C@@H]5O[C@H](CO)[C@@H](O)[C@H](O)[C@H]5O)CC[C@]4(C)[C@H]3CC[C@]12C)C(C)C [3-o-β-D-glucopyranosyl-spinasterol]
- degree of collagen-induced arthritis (clinical severity by paw swelling, verified by micro-CT morphometry) ([1]; CII/CFA immunization, 10 μM/kg of weight three times a week for 28 days, observed 42 days later, compared to the positive control (CIA)): reduced in the degree of collagen-induced arthritis
- regeneration of cartilage at the worn joint ([1]; collagen-induced arthritis, 10 μM/kg three times a week for 28 days): showed regeneration of cartilage at the worn joint
- levels of chondrocytes ([2]; SD rats OD model): greatly increased levels
- levels of mast cells ([2]; SD rats OD model): greatly increased levels
- levels of mucin ([2]; SD rats OD model): greatly increased levels
- regeneration of cartilage tissues (Safran O staining) ([2]; SD rats, cartilage destroyed by drill, compared to the control (b), FIG. 2): significant regeneration of cartilage tissues
